The values below come from US8772237B2, “Compositions and methods for counteracting effects of reactive oxygen species and free radicals” (Ischemix, Inc., priority 1999, dated 2014).

The test has as its system transcription factor AP-1. The test can be described thus: Electrophoretic mobility shift assay (EMSA) for AP-1 activation in primary rat neurons / cortical cultures. It is filed as cell-based. Here is the method:
Nuclear extracts for electrophoretic mobility shift assays (EMSAs) were prepared as described previously (Adams et al., J. Leukocyte Biol., 62: 865-873 (1997)) using 1.0-2.0×10^7 cells per sample. All buffers were freshly supplemented with dithiothreitol (DTT, 0.5 mM), protease inhibitors: PMSF (0.5 mM), chymostatin, peptstatin-A, aprotinin, antipain, leupeptin (each at 1 μg/ml), and phosphatase inhibitors: NaF (10 mM), ZnCl2 (1 mM), sodium orthovanadate (1 mM), and sodium pyrophosphate (5 mM). Aliquots of the final dialyzates were stored at −80° C. and discarded after use.
AP-1 transcription factor activation was assayed using an electrophoretic mobility shift assay (EMSA), as described by Adams et al., J. Leukoc. Biol., 62:865-873 (1997)). Cultures of primary rat neurons (Cornell-Bell et al., Cell Calcium, 12: 185-204 (1991)) were stimulated for 3 hours with various concentrations (0, 1, 10, 100 ng/ml) of peptide CMX-9236. Nuclear extracts prepared as described above were separated by gel electophoresis on non-denaturing gels and subjected to the EMSA procedure. This EMSA used an AP-1 synthetic duplex probe (Angel, P., 1987, Cell 49:729-739) having the sequence 5′-[…] (SEQ ID NO:33) and its antisense copy (complement strand), which were end-labeled with P^32 using polynucleotide kinase and (γ-P^32)-ATP. For the EMSA reaction, the labeled probe (0.5 pmol) was mixed with 3 μg of nuclear extract protein in a solution containing 10 mM Tris-HCl, pH 7.5, 50 mM NaCl, 1 mM EDTA, 1 mM dithiothreitol, 5% glycerol, 0.02% β-mercaptoethanol, and 1 μg of poly-dI/dC (Pharmacia). Reaction mixtures were incubated at 25° C. for 20 minutes to allow complete complex formation by the duplex with its appropriate AP-1 protein. The mixture was then electrophoresed under non-denaturing conditions through 4% polyacrylamide gels in 0.5×TBE buffer (45 mM Trisma base, 45 mM boric acid, 1 mM EDTA). The gels were dried on 3 mm paper. Bands were visualized by autoradiography at −80° C. with one intensifying screen and quantified by laser densitometry. The upregulation of AP-1 and the activation and upregulation process of AP-1 was compared to control cultures.
Primary cortical cell cultures were grown to confluence and used in in vitro cultures for determining the effects of various representative peptide compounds on upregulation of AP-1. […] Extracts were prepared from the nuclei isolated from the primary culture homogenates, purified, and analyzed for the presence of specific transcription factors using the electrophoretic mobility shift assay (EMSA) method. The binding of ^32P-labeled duplex DNA probes specific for activator protein-1 (AP-1) or nuclear factor κB (NF-κB) was analyzed and quantified by autoradiography. After a 3-hour incubation of the cultures with 1 ng/ml of the peptide CMX-9236 there was a 15-fold increase of AP-1 relative to […] control cultures. […] Thus, a small peptide compound that is less than 20 amino acids long can simulate the properties of large growth factors such as NGF and BDNF, which exist as dimers of protein chains with molecular weights of 13,259 and 13,500, respectively.
A general note: Mobility shift assays separate free from complexed probe on a gel.

Ends that are not written are not given here.

As for “KKDGDGDFAIDAPE [CMX-9236, uncapped peptide]”, the “fold-increase of AP-1” value (1 ng/ml, 3-hour incubation) amounted to 15 fold. The “fold-increase of AP-1 (binding of DNA duplex probe)” value (100 ng/ml, 3 hours) turned out to be 60 fold.
